Data from US10934298B2, “Substituted pyrazolo[1,5-a]pyrimidines for the treatment of medical disorders” (BIAL—BioTech Investments, Inc., priority 2016, dated 2021).

Target: T1, glucocerebrosidase (Gcase) (Homo sapiens, UniProt P04062)
T1 construct: micellar solution containing 10 nM GCase and 100 nM saposin C
T1 sequence (P04062 40-536): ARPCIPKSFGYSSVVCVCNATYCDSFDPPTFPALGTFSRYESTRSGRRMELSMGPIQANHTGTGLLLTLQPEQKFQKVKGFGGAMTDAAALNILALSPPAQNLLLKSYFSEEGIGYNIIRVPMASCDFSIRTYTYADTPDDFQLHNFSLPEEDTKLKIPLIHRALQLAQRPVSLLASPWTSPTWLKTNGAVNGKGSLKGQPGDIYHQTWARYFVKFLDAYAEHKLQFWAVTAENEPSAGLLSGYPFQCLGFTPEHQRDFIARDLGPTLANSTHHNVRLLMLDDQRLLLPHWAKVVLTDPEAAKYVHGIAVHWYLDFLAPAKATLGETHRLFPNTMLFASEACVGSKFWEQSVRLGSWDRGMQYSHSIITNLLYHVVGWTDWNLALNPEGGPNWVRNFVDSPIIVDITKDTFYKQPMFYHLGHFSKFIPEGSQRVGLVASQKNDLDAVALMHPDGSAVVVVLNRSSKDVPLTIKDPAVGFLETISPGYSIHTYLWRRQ
Assay: Glucocerebrosidase (Gcase) activation assay with 4-methylumbelliferyl-beta-D-glucopyranoside substrate, saposin C and phosphatidylserine/triton micelles, fluorescence readout
Type: biochemical
Conditions: for Percent Gcase Activation, 0.1 μM Test Compound: test compound at 0.1 μM; for Percent Gcase Activation, 1 μM Test Compound: test compound at 1.0 μM
In short: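 Test compounds are first screened at 1.0 and 0.1 μM final, then titrated in 8 points (3-fold from 5 μM) against human GCase with saposin C in phosphatidylserine/triton X-100 micelles at pH 4.7. Reactions run 15 min at room temperature, with fluorescence read at 365/440 nm.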

Compound	Percent Gcase Activation, 0.1 μM Test Compound	Percent Gcase Activation, 1 μM Test Compound
COc1cc(F)ccc1-c1cc(C)n2ncc(C(=O)NC(C)C(F)(F)F)c2n1 (centres unmarked) [III-150]	*** (greater than 20% Gcase activation)	+++ (Gcase activation greater than 60%)
Cc1cc(-c2ccc(F)cc2C#N)nc2c(C(=O)NC(C3CC3)C(F)(F)F)cnn12 (centres unmarked) [III-151]	*** (greater than 20% Gcase activation)	+++ (Gcase activation greater than 60%)
Cc1cc(-c2ccc(F)cc2C#N)nc2c(C(=O)N[C@@H](C)C3CC3)cnn12 [III-152]	*** (greater than 20% Gcase activation)	+++ (Gcase activation greater than 60%)
Cc1cc(-c2ccc(F)cc2C#N)nc2c(C(=O)N[C@H](C)C3CC3)cnn12 [III-153]	** (Gcase activation in the range of 10% up to 20%)	+++ (Gcase activation greater than 60%)
Cc1cc(-c2ccc(F)cc2C#N)nc2c(C(=O)NC(C)C(F)(F)F)cnn12 (centres unmarked) [III-154]	*** (greater than 20% Gcase activation)	+++ (Gcase activation greater than 60%)
Cc1cc(-c2ccc(F)cc2C#N)nc2c(C(=O)N[C@H](C)C(F)(F)F)cnn12 [III-155]	* (less than 10% Gcase activation)	++ (Gcase activation in the range of 30% up to 60%)
Cc1cc(-c2ccc(F)cc2C#N)nc2c(C(=O)N[C@@H](C)C(F)(F)F)cnn12 [III-156]	*** (greater than 20% Gcase activation)	+++ (Gcase activation greater than 60%)
Cc1cc(-c2ccc(F)c(C#N)c2)nc2c(C(=O)N[C@@H](C)C3CC3)cnn12 [III-157]	*** (greater than 20% Gcase activation)	+++ (Gcase activation greater than 60%)
Cc1cc(-c2ccc(F)c(C#N)c2)nc2c(C(=O)NC(C)C(F)(F)F)cnn12 (centres unmarked) [III-159]	** (Gcase activation in the range of 10% up to 20%)	+++ (Gcase activation greater than 60%)
Cc1cc(-c2ccc(F)c(C(N)=O)c2)nc2c(C(=O)N[C@@H](C)C3CC3)cnn12 [III-160]	** (Gcase activation in the range of 10% up to 20%)	+++ (Gcase activation greater than 60%)
Cc1cc(NC2CC2)nc2c(C(=O)NC(C)C(F)(F)F)cnn12 (centres unmarked) [III-165]	** (Gcase activation in the range of 10% up to 20%)	+++ (Gcase activation greater than 60%)

Continued, values first:

Percent Gcase Activation, 0.1 μM Test Compound	Percent Gcase Activation, 1 μM Test Compound	Compound
*** (greater than 20% Gcase activation)	+++ (Gcase activation greater than 60%)	Cc1cc(-c2ccc(F)c(C#N)c2)nc2c(C(=O)NC(C3CC3)C(F)(F)F)cnn12 (centres unmarked) [III-158]
* (less than 10% Gcase activation)	+++ (Gcase activation greater than 60%)	Cc1cc(-c2cccc(C(N)=O)n2)nc2c(C(=O)NC(C3CC3)C(F)(F)F)cnn12 (centres unmarked) [III-161]
*** (greater than 20% Gcase activation)	+++ (Gcase activation greater than 60%)	Cc1cc(-c2ccc(F)c(C(N)=O)c2)nc2c(C(=O)NC(C3CC3)C(F)(F)F)cnn12 (centres unmarked) [III-162]
*** (greater than 20% Gcase activation)	+++ (Gcase activation greater than 60%)	Cc1cc(-c2ccc(F)cc2)nc2c(C(=O)NC(C3CC3)C(F)(F)F)cnn12 (centres unmarked) [III-163]
*** (greater than 20% Gcase activation)	+++ (Gcase activation greater than 60%)	Cc1cc(-c2ccc(F)cc2)nc2c(C(=O)NC(C)C(F)(F)F)cnn12 (centres unmarked) [III-164]
